Paper PMC10350922, “Allosteric Inhibitors of Macrophage Migration Inhibitory Factor (MIF) Interfere with Apoptosis-Inducing Factor (AIF) Co-Localization to Prevent Parthanatos” (Journal of Medicinal Chemistry, 2023)
Read-outs that look alike come from different tables or passages of the source.

Assays:
HeLa cells [1] = assay: Cell viability (MTS) assay, MNNG-induced parthanatos; assay type: cell-based; conditions: 3 h pretreatment, MNNG 50 μM 15 min, 24 h, MTS, read-out: EC50, protection from MNNG-induced parthanatos
MIF [2] = target: T1, MIF (Homo sapiens, UniProt P14174); assay: Jump dilution assay (reversibility of binding); assay type: biochemical; conditions: 25 μM 6y, 10 min preincubation, 20-fold dilution, 20 min
T1 construct: made in house; host or cells: Escherichia coli BL21, pET-20b(p) plasmid
T1 sequence (P14174 2-115 limits assumed): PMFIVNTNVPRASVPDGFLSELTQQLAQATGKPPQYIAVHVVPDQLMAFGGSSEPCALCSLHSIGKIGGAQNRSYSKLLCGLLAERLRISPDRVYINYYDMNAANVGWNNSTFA
Method: To investigate the reversibility of binding, we performed the activity recovery experiment based on pre-incubation of MIF with the inhibitor at saturated concentration followed by jump dilution. The experiment aimed to study the reversibility of the MIF complex with 6y; thus, MIF was preincubated with 25 μM 6y for 10 min before 20-fold dilution and then tested for residual enzyme activity. After 20 min of residence time, MIF tautomerase activity recovered comparably to that expected for instantaneously reversible inhibitors (Figure 4b).
The solution of the enzyme (1.4 μM) was preincubated with a saturating concentration of inhibitor 6y (25 μM) for 10 min. Then, the enzyme–inhibitor mixture was diluted 20-fold with boric acid buffer, then 50 μL of the mixture was mixed with 50 μL of 2 mM PP solution in ammonium acetate buffer, and recovery of the activity was measured over 20 min. In the control groups, no enzyme/inhibitor was added.

HeLa cells [3] = assay type: cell-based
HeLa cells [4] = assay: Immunofluorescence staining and confocal microscopy (MIF and AIF nuclear translocation); assay type: cell-based
Method: Next, we investigated the mechanism by which 6y protects genome DNA. Considering that […] is a crucial step in parthanatos, we tested if 6y interferes with MIF/AIF binding in vitro. […] Under control conditions, MIF and AIF are mainly located in the cytosol. Upon MNNG treatment, both MIF and AIF translocated to the nucleus.
Immunofluorescence staining was applied to cells to determine the nuclear trans-localization of AIF and MIF. HeLa cells were seeded onto a coverslip and treated with or without 100 μM 6y for 3 h. Then, parthanatos was induced by MNNG (50 μM, 15 min). The same amount of medium in the absence of MNNG was added for the negative control group. After overnight incubation, the cells were fixed with methanol and blocked with 2% BSA in 0.1% PBS-T. AIF and MIF were detected by AIF Monoclonal Antibody (7F7AB10, Invitrogen) and MIF Polyclonal Antibody (PA5-27343, Invitrogen), respectively. Then, AIF and MIF primary antibodies were visualized by Alexa Fluor 647 conjugated anti-Mouse IgG (Invitrogen) and Alexa Fluor 488 conjugated anti-rabbit IgG (Cell Signaling Technology, Leiden, the Netherlands), respectively. After washing, coverslips were mounted onto objective slides with an anti-fading mounting medium with NucBlue stain (Invitrogen). The pictures were acquired using a Leica SP8 confocal laser scanning microscope and analyzed by ImageJ.

MIF [5] = target: T1, MIF; assay: Enzyme kinetics of MIF-catalyzed PP conversion (Michaelis-Menten, Lineweaver-Burk); assay type: biochemical; conditions: for Vmax: 35 nM MIF
Method: Enzyme kinetics experiments were performed to determine the mode of MIF inhibition by 6y (SI, Table S1). The rate of MIF-catalyzed PP conversion was measured at concentrations ranging from 0 to 10 mM in the absence or presence of various inhibitor concentrations (0, 1.4 μM, 2.1 μM, or 2.8 μM).
Toward this aim, 10 μL of the inhibitors was added to 190 μL of the enzyme solution and incubated for 10 min. Then, 50 μL of these solutions was mixed with 50 μL of the solutions of the substrate with different concentrations. The reactions were measured by the increase in UV absorbance at 300 nm, and the data from the first 3 min were used to calculate the initial velocities. The negative control (no MIF) was subtracted from all of the data, and the curves were fitted using nonlinear regression, Michaelis–Menten, and linear regression, Lineweaver–Burk. Vmax was defined as the maximum velocity as extrapolated by the curve fit. The Km of PP was defined as the concentration of PP at which 50% of maximum velocity was reached. The data were analyzed using GraphPad Prism 8.
1. Supporting figures and tables
Figure S1. Michaelis-Menten plot of MIF inhibition by 6y at the concentrations 0, 1.4, 2.1 and 2.8 µM.
Table S1. Kinetic parameters of 6y measured at 35nM of MIF.
(1 picture or pasted object on this page, not shown here)

HeLa cells [6] = assay: Cell morphology after MNNG treatment; assay type: cell-based; conditions: pretreatment with 6y, dose- and time-dependent
From the text: In addition, cellular morphology was investigated to see if the MIF inhibitor 6y restores the original phenotype.

[7] = Solubility observation in the MST experiment; assay type: physicochemical; conditions: at concentrations higher than 1000 μM, PBS-T with 5% DMSO
Method: A microscale thermophoresis (MST) assay was performed to confirm the binding of 6y to MIF. […] Overall, we concluded that 6y binds reversibly to an allosteric binding site that affects MIF tautomerase activity.

MIF/AIF binding = target: T2, MIF/AIF binding (Homo sapiens, UniProt P14174); assay: MIF/AIF binding ELISA; conditions: MIF-coated plate, his-tagged AIF 4 μM
T2 construct: host or cells: Escherichia coli BL21 (MIF)
T2 sequence (P14174 2-115 limits assumed): T1 sequence (P14174 2-115 limits assumed)
Method: Next, we investigated the mechanism by which 6y protects genome DNA. Considering that […] is a crucial step in parthanatos, we tested if 6y interferes with MIF/AIF binding in vitro. […] Under control conditions, MIF and AIF are mainly located in the cytosol. […] Human recombinant untagged MIF was diluted in the binding buffer (Tris-HCl 100 mM, 5 mM MgCl2, 150 mM NaCl, pH 8.5) to a final concentration of 250 nM. 100 μL of MIF solution was used to coat each well of a high-binding 96-well plate overnight at 4 °C. […] After 2 h incubation, the plate was washed three times with washing buffer and incubated with anti-poly-Histidine–peroxidase antibody (Sigma, Amsterdam, the Netherlands) for 30 min. After washing, 100 μL of mixed HRP substrate reagent (R&D Systems, Minneapolis) was added, and the colorizing reaction was stopped by adding 100 μL of 1N sulfuric acid. The absorbance at 450 nm was determined with the correction at […] via a Synergy H1 plate reader.

Compound: O=C(Nc1ccccc1)c1ccc(-n2cc(C(=O)NCc3cccs3)nn2)cc1 [Compound 6y, 1-(4-(Phenylcarbamoyl)phenyl)-N-(thiophen-2-ylmethyl)-1H-1,2,3-triazole-4-carboxamide]
- EC50 (HeLa cells [1]): ~8 µM
- EC50 (HeLa cells [1]; Homo sapiens): 7.7 ± 2.1 µM
- Reversibility of binding to MIF (MIF [2]): reversible
- MNNG-induced DNA damage (comet assay) (HeLa cells [3]; HeLa, 50 μM 6y 2 h, then 10 μM MNNG 2 h, alkaline conditions): inhibited
- Effect of compound alone on genome integrity (comet assay) (HeLa cells [3]; HeLa, without MNNG): did not affect genome integrity
- Genomic DNA fragmentation (gel electrophoresis) (HeLa cells [3]; pretreatment, dose and time-dependent): protective effect
- AIF nuclear translocation upon MNNG stimulation (HeLa cells [4]; 100 μM 6y, MNNG 50 μM 15 min): uninfluenced
- MIF nuclear translocation upon MNNG stimulation (HeLa cells [4]; 100 μM 6y, MNNG 50 μM 15 min): blocks MIF nuclear translocation
- MIF localization under control conditions (HeLa cells [4]; without MNNG): did not affect MIF localization
- Vmax (MIF [5]; 1.4 μM 6y): 0.21±0.02 abs/min
- Vmax (MIF [5]; 2.1 µM 6y): 0.13±0.01 abs/min
- Vmax (MIF [5]; 2.8 μM 6y): 0.08±0.01 abs/min
- Mode of MIF inhibition (MIF [5]; Lineweaver-Burk plot, 0, 1.4, 2.1, 2.8 μM): noncompetitive
- Vmax at highest inhibitor concentration (MIF [5]; decreasing from 0.40 ± 0.03 (control)): 0.08 ± 0.01 absorbance/min
- Restoration of original cell phenotype after MNNG (HeLa cells [6]): mainly (but not completely) restored
- Solubility [7]: limited solubility
- IC50 (MIF/AIF binding): 12.3 µM
